The text below walks through data of article PMC11017246, “Discovery of GLPG2737, a Potent Type 2 Corrector of CFTR for the Treatment of Cystic Fibrosis in Combination with a Potentiator and a Type 1 Co-corrector” (Journal of Medicinal Chemistry, 2024).

≈ marks a conversion by molar mass, not a printed value. Read-outs that look alike come from different tables or passages of the source.

Data set [1] addresses T1, CYP2C19 (Homo sapiens, UniProt P33261).
T1 construct: tissue BD Gentest; host or cells: human liver microsomes
The data set can be described thus: CYP reversible inhibition in HLM, CYP2C19. It counts as in vitro ADME. As to conditions: probe S-mephenytoin. Here is the method: (§1) Test compounds were diluted in methanol and then added to mixture containing 50 mM potassium phosphate buffer, pH 7.4, human liver microsomes (BD Gentest) and probe substrate. After prewarming for 5 min at 37 °C, the reaction was started by adding cofactor mix (7.65 mg/mL glucose-6-phosphate, 1.7 mg/mL NADP, 6 U/mL of glucose-6-phosphate dehydrogenase), resulting in seven final concentrations of test compounds in the range 0.14–100 μM (2% methanol). Isoform specific conditions regarding probe substrate and microsomal protein concentrations are available in Table 2. Final concentrations of cofactor mix components were as follows: 1.56 mg/mL glucose-6-phosphate, 0.34 mg/mL NADP, and 1.2 U/mL glucose-6-phosphate dehydrogenase. After incubation at 37 °C, the reaction was terminated with acetonitrile:methanol (2:1) solution with internal standard. Samples were centrifuged, and the supernatant fractions were analyzed by LC-MS/MS. The instrument responses (test compounds and internal standard peak areas) were referenced to those for solvent controls (assumed as 100%) in order to determine the percentage reduction in probe metabolism. Percent of control activity vs concentration plots were generated and fitted using GraphPad Prism software to generate IC50.

Data set [2] deals with Caco-2 cells. In words: Intestinal permeability on Caco-2 cells. As to conditions: A to B, n = 1. It counts as in vitro ADME, human. Here is the method:
(§2) Caco-2 cells were obtained from the European Collection of Cell Cultures (ECACC) and used after a 21-day cell culture in 24-well Transwell plates. Test compounds and the references (vinblastine and propranolol) were prepared in protein-free Hanks’ balanced salt solution containing 25 mM HEPES (pH 7.4) at a concentration of 10 μM and added to either the apical or basolateral chambers of a Transwell plate assembly. Before the experiment, the integrity of the monolayer was checked by measuring the transepithelial resistance. Lucifer yellow (LY) was added to the donor buffer in all wells to assess the integrity of the cell layers by monitoring LY permeation. As LY cannot freely permeate lipophilic barriers, a high degree of LY transport indicates poor integrity of the cell layer. […] Concentrations of the compound in the samples were measured by LC–MS/MS. Apparent permeability (Papp) coefficients were calculated from the relationship: Papp = dQ/dt × 1/A × C0, where Papp is the apparent permeability coefficient (cm s^–1), dQ/dt is the amount of drug permeated per unit of time, A is the effective surface area of the artificial membrane exposed to the medium, and C0 is the initial drug concentration in the donor compartment. The efflux ratios, as an indication of active efflux from the apical cell surface, were calculated using the ratio of Papp(B → A)/Papp(A → B).
(In general: Caco-2 cells form a polarised layer with tight junctions and transporters.)

A short description of data set [3]: Intestinal permeability on Caco-2 cells. As to conditions: human, Caco-2, pH 7.4; A to B, n = 1; read-out: Caco-2 PA2B. It counts as in vitro ADME, human. Here is the method:
as §2

Data set [4] can be described thus: Liver microsomal stability, dog. It counts as in vitro ADME. Conditions: matrix not given, read-out: Clintr,unbound dog. Here is the method:
The microsomal stability assay was performed by incubation of test compound at 1 μM, 0.2% DMSO in phosphate buffer with microsomes (0.5 mg/mL) from mouse, rat, dog, or human (Xeno-Tech, Kansas City, KS, USA), and cofactors with final concentrations of 0.6 U/mL glucose-6- phosphate dehydrogenase, 3.3 mM MgCl2, 3.3 mM glucose-6-phosphate, and 1.3 mM nicotinamide adenine dinucleotide phosphate (NADP)+. Before addition of the microsomes (time zero) and after 30 min of incubation at 37 °C with shaking, the reaction was stopped, and proteins were precipitated with an excess of acetonitrile containing an internal standard. The samples were mixed, centrifuged, and filtered, and the supernatant was analyzed by liquid chromatography–mass spectrometry/mass spectrometry (LC–MS/MS). […] In vitro unbound intrinsic clearance (CLint,u) was calculated from the half-life using the following equations: [drawing 1] […]
Equilibrium dialysis is a technique used to measure microsomal binding. […] Each compound was analyzed in duplicate for 4 h at 37 °C. At the end of incubation, both chambers were sampled and analyzed by LC-MS/MS. The unbound microsomal fraction (fu, mic) was calculated as the concentration in buffer divided by the total concentration in the microsomal side. […]
For orientation: Microsomes from liver hold many membrane-bound enzymes, among them those of drug oxidation.

Data set [5] is described as follows: Thermodynamic solubility. It counts as physicochemical. Here is the method: Dry matter of compound was dissolved at 1 mg/mL in buffers at different pH (Fasted simulated gastric fluid and pH 7.4) in glass vials. After 24 h of stirring at room temperature, a sample is taken, centrifuged for 10 min at 10,000 rpm, and filtered. The samples were diluted in duplicate in DMSO (F100 and F10). Then, a final dilution (F100) in 80/20 water/acetonitrile containing the internal standard was used for the LCMS-MS analysis.
A standard curve was made ranging from a 200,000–75 ng/mL stock in DMSO, freshly prepared from dry matter. The standard curve and quality controls were diluted in an F100 in 80/20 water/acetonitrile (with internal standard) and analyzed on LC/MS-MS. The peak areas of the standard curve are plotted in a graph, and a linear or polynomial of the second order equation is used to calculate the unknown concentrations of the test compound.

Data set [6] has as its target T2, CYP2D6 (Homo sapiens, UniProt P10635).
T2 construct: tissue BD Gentest; host or cells: human liver microsomes
The data set can be described thus: CYP reversible inhibition in HLM, CYP2D6. It counts as in vitro ADME. As to conditions: probe dextromethorphan. As to the method: as §1

Data set [7] in a line: In vitro micronucleus test. The data set is classed as cell-based.

T2 sequence (P10635 whole entry): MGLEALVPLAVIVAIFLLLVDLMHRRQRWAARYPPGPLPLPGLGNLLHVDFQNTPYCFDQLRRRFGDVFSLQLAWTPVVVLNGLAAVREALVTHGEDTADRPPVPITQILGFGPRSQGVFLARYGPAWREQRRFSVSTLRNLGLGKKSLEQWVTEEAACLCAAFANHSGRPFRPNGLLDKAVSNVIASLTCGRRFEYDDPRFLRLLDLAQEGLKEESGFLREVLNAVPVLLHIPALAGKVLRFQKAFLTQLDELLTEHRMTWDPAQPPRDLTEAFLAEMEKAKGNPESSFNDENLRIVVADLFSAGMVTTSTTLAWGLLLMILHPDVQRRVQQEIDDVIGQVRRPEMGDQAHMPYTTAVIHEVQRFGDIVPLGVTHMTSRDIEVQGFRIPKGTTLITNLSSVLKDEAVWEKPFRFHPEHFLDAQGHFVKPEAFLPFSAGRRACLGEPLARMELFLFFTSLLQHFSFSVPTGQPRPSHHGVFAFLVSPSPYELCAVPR
T1 sequence (P33261 whole entry): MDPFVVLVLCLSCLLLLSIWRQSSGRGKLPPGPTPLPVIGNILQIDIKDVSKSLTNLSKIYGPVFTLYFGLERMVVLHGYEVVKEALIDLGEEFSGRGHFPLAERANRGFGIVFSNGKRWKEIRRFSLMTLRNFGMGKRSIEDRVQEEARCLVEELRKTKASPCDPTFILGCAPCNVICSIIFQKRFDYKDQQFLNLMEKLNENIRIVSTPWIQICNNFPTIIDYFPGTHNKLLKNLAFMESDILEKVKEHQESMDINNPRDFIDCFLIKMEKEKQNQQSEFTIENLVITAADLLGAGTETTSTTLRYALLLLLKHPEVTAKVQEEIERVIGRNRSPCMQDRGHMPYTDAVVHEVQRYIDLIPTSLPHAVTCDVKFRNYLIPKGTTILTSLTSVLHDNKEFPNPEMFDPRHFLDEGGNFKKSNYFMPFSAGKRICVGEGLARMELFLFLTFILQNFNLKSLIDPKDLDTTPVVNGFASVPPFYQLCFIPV

As to `COC1CCN(C2CCN(c3cc(C(=O)NS(=O)(=O)N(C)C)nc4c3c(C3CCC3)nn4-c3ccc(F)cc3)CC2)CC1` [Compound 52, 3-Cyclobutyl-N-(N,N-dimethylsulfamoyl)-1-(4-fluorophenyl)-4-(4-methoxy-[1,4′-bipiperidin]-1′-yl)-1H-pyrazolo[3,4-b]pyridine-6-carboxamide], the figures for the IC50 in data set [1] and in data set [6] were greater than 33 µM and greater than 100 µM, respectively. The “Caco-2 PA2B” value in data set [2] is recorded as 24.5 cm × 10^–6 s^–1. Also, the Papp A→B at 1 h, 10 μM in data set [3] was found to be 24.5 ×10⁻⁶ cm/s. Besides, the CLint scaled at 1 μM in data set [4] is less than 32 mL/min/kg. Also, the solubility (thermodynamic) at 24 h is 9.9 µg/mL (≈ 16.1 µM) in data set [5] (buffer pH 7.4, pH 7.4, read-out: thermodynamic solubility pH 7.4) and 10.9 µg/mL (≈ 17.8 µM) in data set [5] (fasted simulated gastric fluid, read-out: thermodynamic solubility FASSGF). Besides, the clastogenicity / aneugenicity entry in data set [7] is “not mutagenic, clastogenic, or aneugenic”.

The term IC50 denotes the midpoint of a concentration-inhibition curve. Read a low IC50 as higher potency. For orientation: thermodynamic solubility means solubility found after equilibrating the solid with the medium.
